In the supplement of paper PMC13380429:
± gives the standard deviation of the averaged measurements.

Key:
Settings in all cases: 72 h
Vero E6 [1] = assay: drug sensitivity score (DSS) for viability; higher = more toxic; extreme values may be limits of the assay
U2OS [2] = assay: as above
HepG2 [3] = assay: as above
Calu-3 [4] = assay: as above
Caco-2 [5] = assay: as above
Vero E6 [6] = assay: relative viability EC50 (midpoint between 100% and the lowest measured viability); higher = less toxic
U2OS [7] = assay: as above
HepG2 [8] = assay: as above
Calu-3 [9] = assay: as above
Caco-2 [10] = assay: as above
Vero E6 [11] = assay: cell viability relative to DMSO; higher = less toxic
U2OS [12] = assay: as above
HepG2 [13] = assay: as above
Calu-3 [14] = assay: as above
Caco-2 [15] = assay: as above

Row | SMILES | drug sensitivity score (Vero E6 [1]) | drug sensitivity score (U2OS [2]) | drug sensitivity score (HepG2 [3]) | drug sensitivity score (Calu-3 [4]) | drug sensitivity score (Caco-2 [5]) | relative viability EC50 (Vero E6 [6]) | relative viability EC50 (U2OS [7]) | relative viability EC50 (HepG2 [8]) | relative viability EC50 (Calu-3 [9]) | relative viability EC50 (Caco-2 [10]) | cell viability (Vero E6 [11]; 1 nM) | cell viability (Vero E6 [11]; 10 nM) | cell viability (Vero E6 [11]; 100 nM) | cell viability (Vero E6 [11]; 1000 nM) | cell viability (Vero E6 [11]; 10000 nM) | cell viability (U2OS [12]; 1 nM) | cell viability (U2OS [12]; 10 nM) | cell viability (U2OS [12]; 100 nM) | cell viability (U2OS [12]; 1000 nM) | cell viability (U2OS [12]; 10000 nM) | cell viability (HepG2 [13]; 1 nM) | cell viability (HepG2 [13]; 10 nM) | cell viability (HepG2 [13]; 100 nM) | cell viability (HepG2 [13]; 1000 nM) | cell viability (HepG2 [13]; 10000 nM) | cell viability (Calu-3 [14]; 1 nM) | cell viability (Calu-3 [14]; 10 nM) | cell viability (Calu-3 [14]; 100 nM) | cell viability (Calu-3 [14]; 1000 nM) | cell viability (Calu-3 [14]; 10000 nM) | cell viability (Caco-2 [15]; 1 nM) | cell viability (Caco-2 [15]; 10 nM) | cell viability (Caco-2 [15]; 100 nM) | cell viability (Caco-2 [15]; 1000 nM) | cell viability (Caco-2 [15]; 10000 nM)
1 | O=C(Nc1cccc2c(=O)cc(-c3nnn[nH]3)oc12)c1ccc(OCCCCc2ccccc2)cc1 [pranlukast] | 0 | 0 | 0 | 0 | 0 | > 10 µM | > 10 µM | > 10 µM | > 10 µM | > 10 µM | 99.6% | 94.4% | 93.8% | 97.1% | 96% | 96.7% | 97.2% | 94.3% | 98.6% | 95.2% | 95.7% | 95.6% | 104% | 101% | 99.9% | 102% | 111% | 93.1% | 96.8% | 88.9% | 94.1% | 91.3% | 94.6% | 99.1% | 86.7%
2 | CN(C)[C@@H]1C(O)=C(C(N)=O)C(=O)[C@@]2(O)C(O)=C3C(=O)c4c(O)cccc4[C@@](C)(O)[C@H]3C[C@@H]12 [tetracycline] | 0 | 0 | 0 | 0 | 0 | > 10 µM | > 10 µM | > 10 µM | > 10 µM | > 10 µM | 100% | 102% | 100% | 101% | 95.5% | 104% | 98.5% | 102% | 95% | 97.2% | 107% | 96.4% | 107% | 108% | 95.4% | 99.6% | 106% | 100% | 107% | 108% | 101% | 88.2% | 98.8% | 97.1% | 93.8%
3 | COc1cc(OC)c(C(=O)CCCCN2CCC3(CC2)NC(=O)NC3=O)cc1NS(=O)(=O)c1ccc(C(F)(F)F)cc1 | 0 | 0 | 0 | 0 | 0 | > 10 µM | > 10 µM | > 10 µM | > 10 µM | > 10 µM | 103% | 106% | 102% | 99.5% | 99.7% | 98.8% | 106% | 99.7% | 101% | 94.7% | 102% | 111% | 95.3% | 89.1% | 105% | 98.2% | 108% | 81.2% | 93.9% | 93.6% | 102% | 103% | 107% | 98.7% | 93.6%
4 | CCCCCCCCCCC(=O)O[C@H]1CC[C@H]2[C@@H]3CCC4=CC(=O)CC[C@]4(C)[C@H]3CC[C@]12C [Testosterone (undecanoate)] | 0 | 0 | 0 | 0 | 0 | > 10 µM | > 10 µM | > 10 µM | > 10 µM | > 10 µM | 98.5% | 97.2% | 99.2% | 95.5% | 94.9% | 99.8% | 94.4% | 102% | 99.4% | 97.7% | 95.6% | 106% | 92.4% | 99.4% | 96.9% | 103% | 94.7% | 96.5% | 94.4% | 100% | 87.3% | 92.9% | 104% | 96.7% | 91.5%
5 | CN1CCC(c2c[nH]c3ccc(O)cc23)CC1 | 0 | 0 | 0 | 0 | 0 | > 10 µM | > 10 µM | > 10 µM | > 10 µM | > 10 µM | 105% | 102% | 98.8% | 91.7% | 101% | 98% | 103% | 98.7% | 102% | 95.8% | 98.5% | 96% | 94.4% | 83.4% | 100% | 91.9% | 92.8% | 87.9% | 98.7% | 90.3% | 98.7% | 100% | 95.4% | 100% | 92.1%
6 | CCCCCCCCCCCCCCCCCCCCCC(=O)Nc1ccn([C@@H]2O[C@H](CO)[C@@H](O)[C@@H]2O)c(=O)n1 [enocitabine] | 0 | 0 | 0.4 | 0 | 0 | > 10 µM | > 10 µM | > 10 µM | > 10 µM | > 10 µM | 95.6% | 97.2% | 91.9% | 94% | 107% | 94.1% | 95.2% | 95.4% | 93.6% | 102% | 98% | 102% | 100% | 112% | 79.2% | 99.2% | 99% | 104% | 94.9% | 95.7% | 78.8% | 67.8% | 90.5% | 114% | 92.3%
7 | C=C[C@@]1(C)CC(=O)[C@]2(O)[C@@]3(C)[C@@H](O)CCC(C)(C)[C@@H]3[C@H](O)[C@H](OC(C)=O)[C@@]2(C)O1 [colforsin] | 0.4 ± 0.28 | 0 | 0 | 0 | 0 | > 10 µM | > 10 µM | > 10 µM | > 10 µM | > 10 µM | 97.7 ± 6.5% | 101 ± 14% | 103 ± 4.5% | 89.9 ± 3.5% | 85.7 ± 4.3% | 101 ± 1.1% | 101 ± 5% | 95.9 ± 0.28% | 100 ± 1.4% | 96.65 ± 0.64% | 110 ± 8.1% | 106 ± 3.4% | 101 ± 3.2% | 96.4 ± 4.8% | 99.2 ± 3.2% | 106 ± 14% | 109 ± 11% | 103 ± 3% | 106 ± 2.1% | 97.5 ± 7.2% | 97.9 ± 2.7% | 99.3 ± 1.3% | 100 ± 3.5% | 109 ± 6.7% | 118 ± 10%
8 | CC(C)(C)c1cc(C=C(C#N)C#N)cc(Br)c1O [AG-1024] | 0 | 0 | 0.3 | 0 | 1.7 | > 10 µM | > 10 µM | > 10 µM | > 10 µM | > 10 µM | 102% | 96.8% | 98.1% | 94.8% | 92.4% | 105% | 106% | 102% | 96.4% | 99.2% | 102% | 110% | 109% | 119% | 79.8% | 104% | 92.4% | 92% | 87.8% | 100% | 98.8% | 96.8% | 101% | 93.3% | 77.4%
9 | COc1ccc(Oc2c(Cl)cnn(C3c4ccccc4-c4ccccc43)c2=O)cc1 | 0 | 0 | 0 | 0 | 0 | > 10 µM | > 10 µM | > 10 µM | > 10 µM | > 10 µM | 92.6% | 107% | 94.7% | 96.4% | 99.6% | 102% | 95.1% | 94.3% | 97.9% | 95.5% | 103% | 99.8% | 93.5% | 108% | 100% | 110% | 99.9% | 96.4% | 101% | 101% | 98.7% | 95% | 97% | 101% | 88.7%
10 | NC(Cc1ccc(I)cc1)C(=O)O (stereo in doubt) [4-iodo-L-phenylalanine] | 0 | 0 | 0 | 0 | 0 | > 10 µM | > 10 µM | > 10 µM | > 10 µM | > 10 µM | 96.7% | 99.2% | 97.4% | 94.4% | 103% | 102% | 97.8% | 98.8% | 102% | 97.6% | 96.3% | 101% | 82.5% | 104% | 109% | 103% | 101% | 106% | 108% | 95.2% | 102% | 97.4% | 98.2% | 97.3% | 106%
